The text below walks through data of patent US20050250715A1, “Remedy” (priority 2002, published 2005).

In this assay the test system is NGF. The assay is described as follows: Enhancing activity for NGF production in L-M cells (NGF in culture medium by enzyme immunoassay). The settings on record: 20 hours; for Amount of NGF Production (%): control = 100%. It is filed as cell-based, murine. The procedure:
(2) The enhancing activity for NGF production of the compound a was assayed. L-M cells (ATCC CCL-1.2) from murine fibroblasts were suspended in an M199 medium (manufactured by Bio Whittaker) containing 0.5% bactopeptone (manufactured by Gibco) so as to have a concentration of 1.5×10^5 cells/mL. The suspension was put in a 96 well plate in an amount of 0.1 mL each well, and the cells were aseptically cultured. After culturing the cells for 3 days, the medium was removed therefrom, and exchanged with an M199 medium containing 0.5% bovine serum albumin (manufactured by Sigma). The compound a was added thereto, and the cells were cultured for 20 hours. After the termination of the culture, the concentration of NGF in the culture medium was assayed by an enzyme immunoassay method (NGF Emax Immuno Assay System, manufactured by Promega). The experiment was carried out twice, and an average value was taken. […] The amount of NGF production of the control was 0.739 ng/mL. As to the control, the concentration in the culture medium was determined in the same manner except that the compound a was not added. It is the same as that of the following examples.

For the compound `CC(=O)OC1C(OC2C(O)COC(OC3C(O)C(C)(C)CC4C5=CCC6C7(C)CCC(OC8OC(C(=O)O)C(O)C(O)C8OC8OC(CO)C(O)C(O)C8OC8OC(CO)C(O)C(O)C8O)C(C)(CO)C7CCC6(C)C5(C)CCC43C)C2O)OCC(O)C1O` [Compound a, 3-O-[β-D-glucopyranosyl(1→2)-β-D-galactopyranosyl-(1→2)-β-D-glucuronopyranosyl]-22-O-[2-O-acetyl-β-D-xylopyranosyl(1→3)-α-L-arabinopyranosyl]soyasapogenol A], the “enhancing activity for NGF production (result in words)” value (from here on “enhancing activity for NGF production”) is “has an enhancing activity for NGF production”. For the same compound, the “Amount of NGF Production (%)” value (Concentration of Sample 0.5 mM) was 228.3%. The “Amount of NGF Production (%)” value (Concentration of Sample 1.0 mM) was determined as 231.6%. Further, the “Amount of NGF Production (%)” value (Concentration of Sample 2 mM) was 212.6%.

As to `CC(=O)OC1COC(OC2C(O)COC(OC3C(O)C(C)(C)CC4C5=CCC6C7(C)CCC(OC8OC(C(=O)O)C(O)C(O)C8OC8OC(CO)C(O)C(O)C8OC8OC(CO)C(O)C(O)C8O)C(C)(CO)C7CCC6(C)C5(C)CCC43C)C2O)C(OC(C)=O)C1O` [Compound e, 3-O-[β-D-glucopyranosyl(1→2)-β-D-galactopyranosyl-(1→2)-β-D-glucuronopyranosyl]-22-O-[2,4-di-O-acetyl-β-D-xylopyranosyl(1→3)-α-L-arabinopyranosyl]soyasapogenol A], the “enhancing activity for NGF production” value was “has an enhancing activity for NGF production”. Also, for the setting “Concentration of Sample 0.5 mM”, the “Amount of NGF Production (%)” value stood at 214.0%. Besides, the “Amount of NGF Production (%)” value (Concentration of Sample 1.0 mM) amounted to 233.7%. The “Amount of NGF Production (%)” value (Concentration of Sample 2 mM) worked out at 230.1%.

In the case of `CC1(C)C[C@@H](O)[C@]2(C)CC[C@]3(C)C(=CC[C@@H]4[C@@]5(C)CC[C@H](O[C@@H]6O[C@H](C(=O)O)[C@@H](O)[C@H](O)[C@H]6O[C@@H]6O[C@H](CO)[C@H](O)[C@H](O)[C@H]6O[C@@H]6O[C@H](CO)[C@@H](O)[C@H](O)[C@H]6O)[C@@](C)(CO)[C@@H]5CC[C@]43C)[C@@H]2C1` [Compound i, 3-O-[β-D-glucopyranosyl(1→2)-β-D-galactopyranosyl-(1→2)-β-D-glucuronopyranosyl]-soyasapogenol B], the “enhancing activity for NGF production” value is listed as “has enhancing activity for NGF production”. For the same compound, the “Amount of NGF Production (%)” value (Concentration of Sample 1.0 mM) was determined as 116.8%. Under “Concentration of Sample 2 mM”, the “Amount of NGF Production (%)” value came out at 169.4%.

`CC1(C)CC(=O)C2(C)CCC3(C)C(=CCC4C5(C)CCC(OC6OC(C(=O)O)C(O)C(O)C6OC6OC(CO)C(O)C(O)C6OC6OC(CO)C(O)C(O)C6O)C(C)(CO)C5CCC43C)C2C1` [Compound k, 3-O-[β-D-glucopyranosyl(1→2)-β-D-galactopyranosyl-(1→2)-β-D-glucuronopyranosyl]-soyasapogenol E]: the “enhancing activity for NGF production” value is on record as “has enhancing activity for NGF production”. For the setting “Concentration of Sample 1.0 mM”, the “Amount of NGF Production (%)” value amounted to 115.9%. Besides, where the note is “Concentration of Sample 2 mM”, the “Amount of NGF Production (%)” value is reported as 456.3%.

Take `CC(=O)OC1COC(OC2C(O)COC(OC3C(O)C(C)(C)CC4C5=CCC6C7(C)CCC(OC8OC(C(=O)O)C(O)C(O)C8OC8OC(CO)C(O)C(O)C8OC8OC(CO)C(O)C(O)C8O)C(C)(CO)C7CCC6(C)C5(C)CCC43C)C2O)C(O)C1O` [Compound c, 3-O-[β-D-glucopyranosyl(1→2)-β-D-galactopyranosyl-(1→2)-β-D-glucuronopyranosyl]-22-O-[4-O-acetyl-β-D-xylopyranosyl(1→3)-α-L-arabinopyranosyl]soyasapogenol A]: the “enhancing activity for NGF production” value is “has an enhancing activity for NGF production”. Further, where the note is “Concentration of Sample 0.5 mM”, the “Amount of NGF Production (%)” value came out at 255.1%. In addition, the “Amount of NGF Production (%)” value (Concentration of Sample 1.0 mM) came out at 289.2%. Further, the “Amount of NGF Production (%)” value (Concentration of Sample 2 mM) is recorded as 323.7%.

As to `CC(=O)OC1C(O)COC(OC2C(O)COC(OC3C(O)C(C)(C)CC4C5=CCC6C7(C)CCC(OC8OC(C(=O)O)C(O)C(O)C8OC8OC(CO)C(O)C(O)C8OC8OC(CO)C(O)C(O)C8O)C(C)(CO)C7CCC6(C)C5(C)CCC43C)C2O)C1O` [Compound b, 3-O-[β-D-glucopyranosyl(1→2)-β-D-galactopyranosyl-(1→2)-β-D-glucuronopyranosyl]-22-O-[3-O-acetyl-β-D-xylopyranosyl(1→3)-α-L-arabinopyranosyl]soyasapogenol A], the “enhancing activity for NGF production” value is recorded as “has an enhancing activity for NGF production”. The “Amount of NGF Production (%)” value (Concentration of Sample 0.5 mM) is reported as 220.9%. Moreover, the “Amount of NGF Production (%)” value (Concentration of Sample 1.0 mM) is reported as 251.2%. Besides, the “Amount of NGF Production (%)” value (Concentration of Sample 2 mM) was 272.3%.

On to `CC1(C)CC2=C3CC[C@@H]4[C@@]5(C)CCC(O)[C@](C)(CO)[C@@H]5CC[C@@]4(C)[C@]3(C)CC[C@@]2(C)C(O)C1` (stereo partly drawn) [Compound n, 13(18)-oleanene-3,22,24-triol], for which the “enhancing activity for NGF production” value is “has enhancing activity for NGF production”. Moreover, the “Amount of NGF Production (%)” value (Table 3: Concentration of Sample 25 mM) came out at 197.9%. Further, the “Amount of NGF Production (%)” value (Table 3: Concentration of Sample 50 mM) was found to be 522.6%.

Take `CC(=O)OC1C(O)COC(OC2C(O)COC(OC3C(O)C(C)(C)CC4C5=CCC6C7(C)CCC(OC8OC(C(=O)O)C(O)C(O)C8OC8OC(CO)C(O)C(O)C8OC8OC(CO)C(O)C(O)C8O)C(C)(CO)C7CCC6(C)C5(C)CCC43C)C2O)C1OC(C)=O` [Compound d, 3-O-[β-D-glucopyranosyl(1→2)-β-D-galactopyranosyl-(1→2)-β-D-glucuronopyranosyl]-22-O-[2,3-di-O-acetyl-β-D-xylopyranosyl(1→3)-α-L-arabinopyranosyl]soyasapogenol A]: the “enhancing activity for NGF production” value is listed as “has an enhancing activity for NGF production”. For the same compound, where the note is “Concentration of Sample 0.5 mM”, the “Amount of NGF Production (%)” value is reported as 255.8%. In addition, the “Amount of NGF Production (%)” value (Concentration of Sample 1.0 mM) amounted to 281.1%. Besides, the “Amount of NGF Production (%)” value (Concentration of Sample 2 mM) was 276.5%.

For the compound `C[C@@H]1O[C@@H](O[C@H]2[C@H](O[C@H]3[C@H](O[C@H]4CC[C@@]5(C)[C@@H](CC[C@]6(C)[C@@H]5CC=C5[C@@H]7CC(C)(C)C[C@@H](O)[C@]7(C)CC[C@]56C)[C@@]4(C)CO)O[C@H](C(=O)O)[C@@H](O)[C@@H]3O)O[C@H](CO)[C@H](O)[C@@H]2O)[C@H](O)[C@H](O)[C@H]1O` [Compound j, 3-O-[α-L-rhamnopyranosyl(1→2)-β-D-galactopyranosyl-(1→2)-β-D-glucuronopyranosyl]-soyasapogenol B], the “enhancing activity for NGF production” value is recorded as “has enhancing activity for NGF production”. For the setting “Concentration of Sample 0.5 mM”, the “Amount of NGF Production (%)” value turned out to be 138.2%. The “Amount of NGF Production (%)” value (Concentration of Sample 1.0 mM) came out at 176.4%. In addition, the “Amount of NGF Production (%)” value (Concentration of Sample 2 mM) amounted to 212.5%.

Take `CC(=O)OCC1OC(OC2C(O)COC(OC3C(O)C(C)(C)CC4C5=CCC6C7(C)CCC(OC8OC(C(=O)O)C(O)C(O)C8OC8OC(CO)C(O)C(O)C8OC8OC(CO)C(O)C(O)C8O)C(C)(CO)C7CCC6(C)C5(C)CCC43C)C2O)C(OC(C)=O)C(OC(C)=O)C1OC(C)=O` [Compound h, 3-O-[β-D-glucopyranosyl(1→2)-β-D-galactopyranosyl-(1→2)-β-D-glucuronopyranosyl]-22-O-[2,3,4,6-tetra-O-acetyl-β-D-glucopyranosyl(1→3)-α-L-arabinopyranosyl]soyasapogenol A]: the “enhancing activity for NGF production” value is “has enhancing activity for NGF production”. Besides, the “Amount of NGF Production (%)” value (Concentration of Sample 0.5 mM) is listed as 273.3%. In addition, the “Amount of NGF Production (%)” value (Concentration of Sample 1.0 mM) came out at 301.7%. The “Amount of NGF Production (%)” value (Concentration of Sample 2 mM) is recorded as 307.2%.

Consider `CC1OC(OC2C(OC3C(OC4CCC5(C)C(CCC6(C)C5CC=C5C7CC(C)(C)CC(=O)C7(C)CCC56C)C4(C)CO)OC(C(=O)O)C(O)C3O)OC(CO)C(O)C2O)C(O)C(O)C1O` [Compound l, 3-O-[α-L-rhamnopyranosyl(1→2)-β-D-galactopyranosyl-(1→2)-β-D-glucuronopyranosyl]-soyasapogenol E], for which the “enhancing activity for NGF production” value was “has enhancing activity for NGF production”. For the same compound, the “Amount of NGF Production (%)” value (Concentration of Sample 1.0 mM) is recorded as 145.9%. Besides, the “Amount of NGF Production (%)” value (Concentration of Sample 2 mM) came to 531.2%.

As to `CC(=O)OCC1OC(OC2C(O)COC(OC3C(O)C(C)(C)CC4C5=CCC6C7(C)CCC(OC8OC(C(=O)O)C(O)C(O)C8OC8OC(CO)C(O)C(O)C8OC8OC(CO)C(O)C(O)C8O)C(C)(CO)C7CCC6(C)C5(C)CCC43C)C2O)C(O)C(OC(C)=O)C1OC(C)=O` [Compound g, 3-O-[β-D-glucopyranosyl(1→2)-β-D-galactopyranosyl-(1→2)-β-D-glucuronopyranosyl]-22-O-[3,4,6-tri-O-acetyl-β-D-glucopyranosyl(1→3)-α-L-arabinopyranosyl]soyasapogenol A], the “enhancing activity for NGF production” value is “has an enhancing activity for NGF production”. For the same compound, under “Concentration of Sample 0.5 mM”, the “Amount of NGF Production (%)” value was 295.4%. Further, under “Concentration of Sample 1.0 mM”, the “Amount of NGF Production (%)” value amounted to 277.2%. In addition, the “Amount of NGF Production (%)” value (Concentration of Sample 2 mM) is on record as 247.6%.

As to `CC(=O)OC1COC(OC2C(O)COC(OC3C(O)C(C)(C)CC4C5=CCC6C7(C)CCC(OC8OC(C(=O)O)C(O)C(O)C8OC8OC(CO)C(O)C(O)C8OC8OC(CO)C(O)C(O)C8O)C(C)(CO)C7CCC6(C)C5(C)CCC43C)C2O)C(O)C1OC(C)=O` [Compound f, 3-O-[β-D-glucopyranosyl(1→2)-β-D-galactopyranosyl-(1→2)-β-D-glucuronopyranosyl]-22-O-[3,4-di-O-acetyl-β-D-xylopyranosyl(1→3)-α-L-arabinopyranosyl]soyasapogenol A], the “enhancing activity for NGF production” value is listed as “has an enhancing activity for NGF production”. For the same compound, the “Amount of NGF Production (%)” value (Concentration of Sample 0.5 mM) was 204.5%. Also, under “Concentration of Sample 1.0 mM”, the “Amount of NGF Production (%)” value worked out at 208.8%. Moreover, the “Amount of NGF Production (%)” value (Concentration of Sample 2 mM) is listed as 218.5%.
